Test results reported in paper PMC3894558, “Chemical signatures and new drug targets for gametocytocidal drug development” (Scientific Reports, 2014).
Read-outs that look alike come from different tables or passages of the source.

Test system: P. falciparum 3D7 gametocytes
Assay: alamarBlue gametocyte viability assay, strain 3D7
Assay type: cell-based, Plasmodium falciparum
Details: Malaria Box; for Max Resp: DMSO set at 0%, 100 nM epoxomicin set at -100%; for Curve Class / IC50: stages III-V 3D7 gametocytes; for IC50: 11 concentrations, 1:3 dilution; call rule not given here

| Structure (SMILES) | IC50 (read-out: IC50) [µM] | IC50 | Max Resp [%] | Curve Class |
| --- | --- | --- | --- | --- |
| O=C(NNc1cc(N2CCCC2)nc(N2CCCC2)n1)c1ccccc1 [MMV396770] | 10.5 |  | -93 | -2.1 |
| Clc1ccc2c(N3CCCC3)ccnc2c1 [MMV007363] | 23.5 |  | -75 | -2.2 |
| CCc1c(C)c(=N)c2ccccc2n1C.I [MMV006278] |  | Inactive | -52 | -2.2 |
| O=C(Nc1ccc(-c2nc3cc(NC(=O)c4ccc(Cl)cc4)ccc3[nH]2)cc1)c1ccc(Cl)cc1 [MMV006962] | 11.8 |  | -94 | -2.1 |
| c1ccc2c(NCCc3c[nH]c4ccccc34)c3ccccc3nc2c1 [MMV006513] | 16.6 |  | -85 | -2.1 |
| COc1ccccc1N1C(=N)SC(=Cc2ccc(OCc3ccccc3F)cc2)C1=O [MMV007199] |  | Inactive | -2 | 4 |
| CCCc1c(CC)c(=N)c2ccccc2n1C [MMV008416] | 37.2 |  | -53 | -2.2 |
| COCCNCC(O)Cn1c2ccc(Cl)cc2c2cc(Cl)ccc21 (stereo not drawn) [MMV019017] | 2.64 |  | -94 | -1.1 |
| CN(C)CCNc1cc(-c2ccccc2)nc2ccccc12 [MMV006704] | 29.6 |  | -79 | -2.2 |
| CCOC(=O)C1=CN(C)C=C(C(=O)OCC)C1c1cc(Br)c(OCC)c(OC)c1 [MMV006656] | 14.8 |  | -72 | -2.2 |
| Fc1ccc2[nH]c3c(NCCCN4CCOCC4)ncnc3c2c1 [MMV019871] |  | Inactive | -42 | -2.2 |
| Cc1cc(Nc2ccc(OCc3ccccc3)cc2)nc2cc(O)ccc12 [MMV007181] | 0.59 |  | -30 | -1.2 |
| OC(CNCC1CCCO1)Cn1c2ccc(Cl)cc2c2cc(Cl)ccc21 (stereo not drawn) [MMV396736] | 23.5 |  | -70 | -2.2 |
| COc1ccc(NC(=O)C2c3ccccc3C(=O)N(CC(C)C)C2c2cccs2)cc1Cl (stereo not drawn) [MMV000642] | 9.35 |  | -75 | -2.2 |
| CCOc1ccccc1NC(=O)CN1CCN(C(=O)c2ccco2)CC1 [MMV007791] |  | Inactive | 1 | 4 |
| O=C(Nc1ccc(N2CCCCC2)c(Cl)c1)c1ccc(Br)o1 [MMV019700] |  | Inactive | 17 | 4 |
| COc1ccc(CCNC(=O)c2cc(S(=O)(=O)N3CC(C)CC(C)C3)ccc2Sc2ccc(F)cc2)cc1OC (stereo not drawn) [MMV007557] | 9.35 |  | -72 | -2.2 |
| COc1ccc(C=C2SC(Nc3ccc(F)cc3)=NC2=O)c(OC)c1 [MMV084434] |  | Inactive | -24 | 4 |
| Nc1nc(Nc2cccc(F)c2)nc2ccccc12 [MMV080034] | 29.6 |  | -61 | -2.2 |
| OC(CNC1CCCCC1)Cn1c2ccccc2c2ccccc21 (stereo not drawn) [MMV009063] | 2.35 |  | -99 | -1.1 |
| CCOc1ccc2nc(C)cc(Nc3ccc(Br)cc3)c2c1 [MMV006522] | 29.6 |  | -59 | -2.2 |
| CC(C)c1ccc(CNCC(O)c2ccccc2)cc1.Cl (stereo not drawn) [MMV001049] | 2.35 |  | -76 | -1.2 |
| CN1CCN(c2ccc(Nc3c4ccccc4nc4ccccc34)cc2)CC1 [MMV006172] | 1.48 |  | -98 | -1.1 |
| CCN(CC)c1cc(C)c2cc(NC(=O)c3cccc(OC)c3)ccc2n1 [MMV000498] |  | Inactive | -20 | 4 |
| COc1nc(Nc2ccc(C(C)C)cc2)nc(OC)n1 [MMV007808] |  | Inactive | -9 | 4 |
| CCCCc1c(C)nc2c(OC)cccc2c1O [MMV006820] |  | Inactive | 24 | 4 |
| COc1ccc(C(O)(CCC(C)C)C(CN2CCOCC2)c2ccc(Cl)cc2)cc1.Cl (stereo not drawn) [MMV000617] |  | Inactive | -31 | -2.4 |
| COc1ccc(NC(=O)C2c3ccccc3C(=O)N(CC(C)C)C2c2cccs2)cc1 (stereo not drawn) [MMV000662] | 4.18 |  | -81 | -1.1 |
| c1ccc2cc3c(Nc4ccc(N5CCOCC5)cc4)ccnc3cc2c1 [MMV006861] | 18.7 |  | -63 | -2.2 |

Now from value to compound, other results behind:

| IC50 (read-out: IC50) [µM] | IC50 | Structure (SMILES) | Max Resp [%] | Curve Class |
| --- | --- | --- | --- | --- |
|  | Inactive | FC(F)(F)c1cccc(Nc2nc(-c3ccccc3)nc3ncccc23)c1 [MMV665798] | -7 | 4 |
|  | Inactive | c1ccc(-c2ccc(-c3nc4ccccc4[nH]3)cc2)cc1 [MMV665891] | 18 | 4 |
|  | Inactive | CCOC(=O)C1=C(c2ccccc2)N=c2sc(=Cc3cc(C)n(-c4ccc(F)cc4)c3C)c(=O)n2C1c1cccc(OC)c1OC (stereo not drawn) [MMV666601] | -26 | 4 |
| 11.8 |  | OC1CCCCC1C1(NC(=S)Nc2ccccc2)CCCCC1 (stereo not drawn) [MMV665980] | -81 | -2.1 |
| 10.5 |  | COc1ccc(CCN2CCC(CN(C)Cc3cnn(-c4ccccc4)c3)CC2)cc1 [MMV666069] | -86 | -2.1 |
|  | Inactive | O=C(Nc1ccc(Cl)cc1)N1CCN(c2ccc3nncn3n2)CC1 [MMV665917] | -1 | 4 |
|  | Inactive | CC(C)(C)c1ccc(C(=O)Nc2c3c(nn2-c2cccc(Cl)c2)CSC3)cc1 [MMV666123] | -6 | 4 |
|  | Inactive | COc1ccc(CNC(=O)c2cc3c(=O)n4ccccc4nc3n(CCc3ccccc3)c2=N)cc1 [MMV665881] | -29 | 4 |
| 3.72 |  | COc1ccc2c(=O)cc(C(Cl)(Cl)Cl)oc2c1 [MMV665820] | -101 | -1.1 |
| 2.64 |  | COc1ccc(CCn2c(=N)c(C(=O)NCc3cccnc3)cc3c(=O)n4cccc(C)c4nc32)cc1 [MMV667488] | -32 | -1.2 |
| 4.18 |  | COc1ccc(C2c3ccc4ccccc4c3Oc3ncn(CCCn4ccnc4)c(=N)c32)cc1OC (stereo not drawn) [MMV667490] | -79 | -1.1 |
| 2.96 |  | CC(C)(C)CC(C)(C)NCC(O)COc1ccc(Cl)cc1Cl (stereo not drawn) [MMV396794] | -106 | -1.1 |
|  | Inactive | CCOC(=O)c1cnc2ccc(OC)cc2c1NCc1ccccc1 [MMV665813] | -14 | 4 |
|  | Inactive | CCOc1cc(Cl)c(C(C)NC(=O)c2ccccc2)cc1OCC (stereo not drawn) [MMV665800] | -48 | -2.2 |
